Legend:
[1] = cited from earlier work
MCF-7 cells = assay: Confocal microscopy binding, MCF-7 cells; format: cell-based; conditions: 0.5 μM, 30 min
[2] = human serum, HPLC AUC vs time
[3] = mouse, in vivo
p-HER2 = assay: Western blot of total and phosphorylated HER2, BT-474; format: cell-based; conditions: BT-474 cells, 1.5 μM, 36 h

Cyclo(PpR-((R) Anapa)FDDF-((R) Anapa)R [compound 18]
Stability in serum in vitro [1]: more than 48 h

N=C(N)NCCC[C@@H]1NC(=O)[C@H]2CCCN2C(=O)[C@@H]2CCCN2C(=O)[C@H](CCCCNC(=O)c2ccc3c(c2)C2(OC3=O)c3ccc(O)cc3Oc3cc(O)ccc32)NC(=O)C[C@H](c2cccc3ccccc23)NC(=O)[C@H](Cc2ccccc2)NC(=O)[C@H](CC(=O)O)NC(=O)[C@H](CC(=O)O)NC(=O)[C@H](Cc2ccccc2)NC(=O)C[C@H](c2cccc3ccccc23)NC1=O [compound 44, Cyclo(PpR-(R)Anapa-FDDF-(R)Anapa-K-(6-FAM)]
Binding to cells by confocal microscopy (green fluorescence) (MCF-7 cells): does not bind significantly

N=C(N)NCCC[C@H]1NC(=O)C[C@H](c2cccc3ccccc23)NC(=O)[C@@H](Cc2ccccc2)NC(=O)[C@@H](CC(=O)O)NC(=O)[C@H]2CCCN2C(=O)[C@@H]2CCCN2C(=O)[C@@H](CCCNC(=N)N)NC(=O)C[C@H](c2cccc3ccccc23)NC(=O)[C@@H](Cc2ccccc2)NC(=O)[C@@H](CC(=O)O)NC1=O [compound 32, Cyclo(Ppdf-(R)Anapa-rdf-(R)Anapa-r]
Time stable in serum [2]: 48 h | Compound detected after 12 h compared to the 15 min [3]: ~70% | Level of p-HER2 (Western blot) (p-HER2): decreased the level of p-HER2 | Total-HER2 protein levels (Western blot) (p-HER2): did not show any significant effect

Reference: paper PMC6284401 (Journal of peptide science : an official publication of the …, 2018)
